In ChEMBL document CHEMBL1201862, “PubChem BioAssay data set” (2004):
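48-hour exposure; five concentrations; linearly interpolated endpoints. Here, GI50 denotes the concentration required for 50% inhibition of growth.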 Activity calls are given as the source filed them. Cut-off read from the data, not from the text of the source: active = GI50 up to about 1.1 µM and inactive = higher.

How the values were obtained:
Experiment in all cases: inhibition of tumour cell growth, NCI panel, 48 h
SW-620 = tested on: SW-620
EKVX = tested on: EKVX
COLO 205 = tested on: COLO 205
SF-295 = tested on: SF-295
M19-MEL = tested on: M19-MEL
SNB-75 = tested on: SNB-75
NCI-H460 = tested on: NCI-H460
HOP-92 = tested on: HOP-92
LOX IMVI = tested on: LOX IMVI
NCI-H226 = tested on: NCI-H226
CCRF-CEM = tested on: CCRF-CEM
RXF 393 = tested on: RXF 393
SF-539 = tested on: SF-539
SF-268 = tested on: SF-268
HCC 2998 = tested on: HCC 2998
M14 = tested on: M14
RPMI-8226 = tested on: RPMI-8226
OVCAR-3 = tested on: OVCAR-3
SK-MEL-2 = tested on: SK-MEL-2
SN12C = tested on: SN12C
LXFL 529 = tested on: LXFL 529
Malme-3M = tested on: Malme-3M
TK-10 = tested on: TK-10
SNB-78 = tested on: SNB-78
ACHN = tested on: ACHN
SR = tested on: SR
UACC-62 = tested on: UACC-62
HT-29 = tested on: HT-29
NCI-H522 = tested on: NCI-H522
RXF 631 = tested on: RXF 631
OVCAR-8 = tested on: OVCAR-8
IGROV-1 = tested on: IGROV-1
SK-MEL-28 = tested on: SK-MEL-28
KM12 = tested on: KM12
OVCAR-5 = tested on: OVCAR-5
DMS-273 = tested on: DMS-273
DLD-1 = tested on: DLD-1
DMS-114 = tested on: DMS-114
A549 = tested on: A549
A498 = tested on: A498
OVCAR-4 = tested on: OVCAR-4
786-0 = tested on: 786-0
HOP-62 = tested on: HOP-62
UO-31 = tested on: UO-31
SK-OV-3 = tested on: SK-OV-3
HOP-18 = tested on: HOP-18
HCT-116 = tested on: HCT-116
SK-MEL-5 = tested on: SK-MEL-5
CAKI-1 = tested on: CAKI-1
K562 = tested on: K562
U-251 = tested on: U-251
KM-20L2 = tested on: KM-20L2
HCT-15 = tested on: HCT-15
UACC-257 = tested on: UACC-257
HL-60 = tested on: HL-60
MOLT-4 = tested on: MOLT-4
XF498 = tested on: XF498
NCI-H23 = tested on: NCI-H23
SNB-19 = tested on: SNB-19

With `O=C(Nc1nc2ncn(CCNCc3ccccc3)c2c(=O)[nH]1)c1ccccc1` the GI50 (SW-620) was > 100 µM (inactive), the GI50 (EKVX) was > 100 µM (inactive) and the GI50 (COLO 205) was > 100 µM (inactive). The GI50 (SF-295) was > 100 µM (inactive), the GI50 (M19-MEL) was > 100 µM (inactive) and the GI50 (SNB-75) was 90.2 µM (inactive). The GI50 (NCI-H460) was > 100 µM (inactive), the GI50 (HOP-92) was > 100 µM (inactive) and the GI50 (LOX IMVI) was > 100 µM (inactive). For the same compound, the GI50 (NCI-H226) was > 100 µM (inactive), the GI50 (CCRF-CEM) was > 100 µM (inactive) and the GI50 (RXF 393) was 91 µM (inactive). The GI50 (SF-539) was > 100 µM (inactive), the GI50 (SF-268) was 63.8 µM (inactive) and the GI50 (HCC 2998) was > 100 µM (inactive). The GI50 (M14) was > 100 µM (inactive), the GI50 (RPMI-8226) was 65.3 µM (inactive) and the GI50 (OVCAR-3) was > 100 µM (inactive). The GI50 (SK-MEL-2) was > 100 µM (inactive), the GI50 (SN12C) was > 100 µM (inactive) and the GI50 (LXFL 529) was > 100 µM (inactive). For the same compound, the GI50 (Malme-3M) was > 100 µM (inactive), the GI50 (TK-10) was > 100 µM (inactive) and the GI50 (SNB-78) was > 100 µM (inactive). The GI50 (ACHN) was > 100 µM (inactive), the GI50 (SR) was > 100 µM (inactive) and the GI50 (UACC-62) was > 100 µM (inactive). The GI50 (HT-29) was > 100 µM (inactive), the GI50 (NCI-H522) was > 100 µM (inactive) and the GI50 (RXF 631) was 41.5 µM (inactive). For the same compound, the GI50 (OVCAR-8) was > 100 µM (inactive), the GI50 (IGROV-1) was > 100 µM (inactive) and the GI50 (SK-MEL-28) was > 100 µM (inactive). The GI50 (KM12) was > 100 µM (inactive), the GI50 (OVCAR-5) was > 100 µM (inactive) and the GI50 (DMS-273) was > 100 µM (inactive). The GI50 (DLD-1) was > 100 µM (inactive), the GI50 (DMS-114) was > 100 µM (inactive) and the GI50 (A549) was > 100 µM (inactive). For the same compound, the GI50 (A498) was > 100 µM (inactive), the GI50 (OVCAR-4) was > 100 µM (inactive) and the GI50 (786-0) was > 100 µM (inactive). The GI50 (HOP-62) was > 100 µM (inactive), the GI50 (UO-31) was 50.8 µM (inactive) and the GI50 (SK-OV-3) was > 100 µM (inactive). For the same compound, the GI50 (HOP-18) was > 100 µM (inactive), the GI50 (HCT-116) was > 100 µM (inactive) and the GI50 (SK-MEL-5) was > 100 µM (inactive). The GI50 (CAKI-1) was > 100 µM (inactive), the GI50 (K562) was > 100 µM (inactive) and the GI50 (U-251) was > 100 µM (inactive). For the same compound, the GI50 (KM-20L2) was > 100 µM (inactive), the GI50 (HCT-15) was > 100 µM and the GI50 (UACC-257) was > 100 µM (inactive). The GI50 (HL-60) was > 100 µM (inactive).
`c1cncc(C2N3CCCCC3[C@@H]3c4[nH]c5ccccc5c4CCN23)c1` (stereo not given in full) was tested, and the GI50 (SW-620) was > 100 µM (inactive), the GI50 (EKVX) was > 100 µM (inactive) and the GI50 (SF-295) was > 100 µM (inactive). The GI50 (M19-MEL) was > 100 µM (inactive), the GI50 (SNB-75) was > 100 µM (inactive) and the GI50 (NCI-H460) was > 100 µM (inactive). The GI50 (HOP-92) was > 100 µM (inactive), the GI50 (MOLT-4) was > 100 µM (inactive) and the GI50 (CCRF-CEM) was > 100 µM (inactive). The GI50 (RXF 393) was 21.1 µM (inactive), the GI50 (XF498) was > 100 µM (inactive) and the GI50 (SF-539) was > 100 µM (inactive). The GI50 (SF-268) was > 100 µM (inactive), the GI50 (NCI-H23) was > 100 µM (inactive) and the GI50 (M14) was > 100 µM (inactive). For the same compound, the GI50 (RPMI-8226) was > 100 µM (inactive), the GI50 (OVCAR-3) was > 100 µM (inactive) and the GI50 (SK-MEL-2) was > 100 µM (inactive). The GI50 (SN12C) was > 100 µM (inactive), the GI50 (LXFL 529) was > 100 µM (inactive) and the GI50 (TK-10) was > 100 µM (inactive). For the same compound, the GI50 (SNB-78) was 87.1 µM (inactive), the GI50 (ACHN) was > 100 µM (inactive) and the GI50 (UACC-62) was 47.6 µM (inactive). For the same compound, the GI50 (HT-29) was > 100 µM (inactive), the GI50 (RXF 631) was > 100 µM (inactive) and the GI50 (OVCAR-8) was > 100 µM (inactive). The GI50 (IGROV-1) was > 100 µM (inactive), the GI50 (SK-MEL-28) was > 100 µM (inactive) and the GI50 (OVCAR-5) was > 100 µM (inactive). The GI50 (DMS-273) was > 100 µM (inactive), the GI50 (DLD-1) was > 100 µM (inactive) and the GI50 (A549) was > 100 µM (inactive). For the same compound, the GI50 (A498) was > 100 µM (inactive), the GI50 (OVCAR-4) was > 100 µM (inactive) and the GI50 (786-0) was > 100 µM (inactive). For the same compound, the GI50 (HOP-62) was > 100 µM (inactive), the GI50 (UO-31) was > 100 µM (inactive) and the GI50 (SK-OV-3) was > 100 µM (inactive). The GI50 (HOP-18) was > 100 µM (inactive), the GI50 (HCT-116) was > 100 µM (inactive) and the GI50 (SK-MEL-5) was > 100 µM (inactive). For the same compound, the GI50 (CAKI-1) was > 100 µM (inactive), the GI50 (K562) was > 100 µM (inactive) and the GI50 (U-251) was > 100 µM (inactive). The GI50 (KM-20L2) was > 100 µM (inactive), the GI50 (HCT-15) was > 100 µM and the GI50 (UACC-257) was > 100 µM (inactive). The GI50 (HL-60) was > 100 µM (inactive) and the GI50 (SNB-19) was > 100 µM (inactive).
